Where two headings read alike, the source gives them in different places.
What was measured:
Assay type in all cases: cell-based
[1] = target: T1, human CFTR channel endogenously expressed in Calu-3 (Homo sapiens, UniProt P13569); test: iodide efflux in Calu-3 human bronchial epithelial cells; details: for EC50: Calu-3 cells, read-out: half-effect concentration (EC50)
T1 construct: human pulmonary epithelial cells endogenously expressing the CFTR channel; host or cells: Calu-3 human pulmonary epithelial cells
T1 sequence (P13569 whole entry): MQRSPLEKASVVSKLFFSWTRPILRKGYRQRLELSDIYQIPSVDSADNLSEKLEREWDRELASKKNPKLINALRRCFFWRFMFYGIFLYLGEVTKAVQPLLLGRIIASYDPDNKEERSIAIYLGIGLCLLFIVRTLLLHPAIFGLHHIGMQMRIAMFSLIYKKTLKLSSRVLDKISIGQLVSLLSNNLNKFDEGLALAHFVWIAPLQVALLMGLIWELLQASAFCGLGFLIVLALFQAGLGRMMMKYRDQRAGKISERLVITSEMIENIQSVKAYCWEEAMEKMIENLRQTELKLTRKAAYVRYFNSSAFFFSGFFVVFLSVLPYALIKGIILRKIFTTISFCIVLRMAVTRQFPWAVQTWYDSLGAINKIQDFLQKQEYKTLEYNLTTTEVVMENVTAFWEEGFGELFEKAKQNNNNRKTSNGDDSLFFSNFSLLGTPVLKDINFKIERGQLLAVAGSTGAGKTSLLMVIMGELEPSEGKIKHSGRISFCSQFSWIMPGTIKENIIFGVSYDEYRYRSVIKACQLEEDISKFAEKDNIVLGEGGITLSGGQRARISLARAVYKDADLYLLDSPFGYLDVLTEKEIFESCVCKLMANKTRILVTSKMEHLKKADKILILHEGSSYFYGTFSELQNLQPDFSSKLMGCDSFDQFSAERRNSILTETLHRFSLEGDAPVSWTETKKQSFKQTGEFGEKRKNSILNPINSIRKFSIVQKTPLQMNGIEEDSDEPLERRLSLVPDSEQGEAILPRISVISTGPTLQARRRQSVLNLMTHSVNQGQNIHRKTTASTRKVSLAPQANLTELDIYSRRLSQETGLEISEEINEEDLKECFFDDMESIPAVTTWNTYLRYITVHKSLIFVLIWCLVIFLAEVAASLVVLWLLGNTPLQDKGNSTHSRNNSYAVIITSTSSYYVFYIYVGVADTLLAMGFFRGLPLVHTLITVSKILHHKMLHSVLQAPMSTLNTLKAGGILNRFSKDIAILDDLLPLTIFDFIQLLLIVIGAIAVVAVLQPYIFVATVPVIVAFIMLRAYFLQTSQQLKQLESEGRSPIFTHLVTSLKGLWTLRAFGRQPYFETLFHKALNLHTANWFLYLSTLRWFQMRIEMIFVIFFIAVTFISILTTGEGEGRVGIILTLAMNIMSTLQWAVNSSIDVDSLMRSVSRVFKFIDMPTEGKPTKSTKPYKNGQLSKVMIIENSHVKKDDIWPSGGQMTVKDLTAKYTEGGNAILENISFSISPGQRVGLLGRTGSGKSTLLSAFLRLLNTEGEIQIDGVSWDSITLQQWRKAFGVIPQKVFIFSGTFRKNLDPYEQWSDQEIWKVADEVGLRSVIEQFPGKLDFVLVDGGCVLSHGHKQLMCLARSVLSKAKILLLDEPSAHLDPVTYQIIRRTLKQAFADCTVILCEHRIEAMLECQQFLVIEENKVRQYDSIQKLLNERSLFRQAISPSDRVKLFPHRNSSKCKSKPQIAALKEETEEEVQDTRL
Protocol: (§1) The CFTR studies are also carried out on Calu-3 cells (ATCC No. HTB-55), which are human pulmonary epithelial cells endogenously expressing the CFTR channel. These cells are cultured under the same culture conditions as the CHO cells. The study of the mutated CFTR channel is carried out on JME/CF15 cells, which are epithelial cells extracted from respiratory airways of patients suffering from cystic fibrosis (homozygous ΔF508) (Jefferson et al., 1990). These cells therefore express the ΔF508 mutated CFTR channel. These cells are cultured under the same conditions as above, but the culture medium is supplemented with a hormone mixture containing: adenine (180 μM), insulin (5 μg/ml), transferrin (5 μg/ml), hydrocortisone (1.1 μM), triiodothyronine (2 nM), epinephrine (5.5 μM), epidermal growth factor (1.64 nM).
(§2) This technique makes it possible to follow the kinetics of exit of the ^125I radioactive iodide. The cells are cultured in 24-well plates with a dilution to 1/10 after passage. On the fourth day of culture, the drugs to be tested are dissolved in solution according to the desired concentration, at 37° C., in medium B, at pH 7.4, containing, in mM: 137 NaCl, 5.36 KCl, 0.8 mM MgCl2, 1.8 mM CaCl2, 5.5 glucose and 10 HEPES-NaOH. The wells are washed 4 times with 500 μl of medium B. The solution is subsequently replaced with 500 μl of loading solution containing 1 μM KI and 0.5 μCi of ^125INa/ml for 30 min. The kinetics of exit of ^125I are determined after having eliminated the loading solution and washed the wells 4 times with 500 μl of medium B. For the ^125I exit kinetics, 500 μl of medium B containing or not containing the molecules to be tested are incubated for 30 sec in the wells and recovered in a hemolysis tube, so as to be replaced with 500 μl of medium B containing or not containing the molecules to be tested. The operation is repeated every 30 s for 2 to 6 min. At the end of the efflux, the intracellular ions are extracted by adding 1 ml of trichloroacetic acid (7.5%) to the cell layer. All the samples are counted in a gamma counter (Kontron). The precipitated proteins are solubilized in 0.1N NaOH and quantified using a calorimetric test.
(§3) The tracer contained in the cell layer at the beginning of the efflux is calculated as the sum of the samples and of the extracts counted. The efflux curves are constructed by expressing the percentage of the content remaining in the cell layer (I %) with respect to time. The stimulated or nonstimulated efflux rate constants (k, min^−1) are determined by smoothing the efflux curves to a monoexponential function I %=100*exp(−kt) using a linear regression of the neperian logarithm of the data, k is used to calculate the iodide released into the medium with respect to time. The hypothesis is made that, in the presence of a stimulator, the efflux is the sum of two iodide effluxes occurring in parallel: a basal efflux and a stimulated efflux characterized, respectively, by the constants kb and ks. The total net efflux is then described by the equation It^%=100*(1−exp(−ktt)) where kt is the sum of kb and ks. Finally, ks calculated as kt−kb is used to establish a dose-response relationship for antagonists. The data is expressed as means ±SD, and the t-test is used to determine the significances. […] Y begins at the basal level and progresses to the plateau (Ymax), X is the concentration and the half-effect values (EC are calculated using GraphPad Prism v3.0 (GraphPad software)).

[2] = target: T2, ΔF508 mutated CFTR channel (Homo sapiens, UniProt P13569, DEL508-508); test: iodide efflux in JME/CF15 human bronchial epithelial cells from cystic fibrosis patients; details: JME/CF15 cells
T2 construct: epithelial cells extracted from respiratory airways of patients suffering from cystic fibrosis (homozygous ΔF508); endogenous in cells; host or cells: JME/CF15 human airway epithelial cells (homozygous ΔF508)
T2 sequence (P13569 with tags, fused parts or gaps DEL508-508): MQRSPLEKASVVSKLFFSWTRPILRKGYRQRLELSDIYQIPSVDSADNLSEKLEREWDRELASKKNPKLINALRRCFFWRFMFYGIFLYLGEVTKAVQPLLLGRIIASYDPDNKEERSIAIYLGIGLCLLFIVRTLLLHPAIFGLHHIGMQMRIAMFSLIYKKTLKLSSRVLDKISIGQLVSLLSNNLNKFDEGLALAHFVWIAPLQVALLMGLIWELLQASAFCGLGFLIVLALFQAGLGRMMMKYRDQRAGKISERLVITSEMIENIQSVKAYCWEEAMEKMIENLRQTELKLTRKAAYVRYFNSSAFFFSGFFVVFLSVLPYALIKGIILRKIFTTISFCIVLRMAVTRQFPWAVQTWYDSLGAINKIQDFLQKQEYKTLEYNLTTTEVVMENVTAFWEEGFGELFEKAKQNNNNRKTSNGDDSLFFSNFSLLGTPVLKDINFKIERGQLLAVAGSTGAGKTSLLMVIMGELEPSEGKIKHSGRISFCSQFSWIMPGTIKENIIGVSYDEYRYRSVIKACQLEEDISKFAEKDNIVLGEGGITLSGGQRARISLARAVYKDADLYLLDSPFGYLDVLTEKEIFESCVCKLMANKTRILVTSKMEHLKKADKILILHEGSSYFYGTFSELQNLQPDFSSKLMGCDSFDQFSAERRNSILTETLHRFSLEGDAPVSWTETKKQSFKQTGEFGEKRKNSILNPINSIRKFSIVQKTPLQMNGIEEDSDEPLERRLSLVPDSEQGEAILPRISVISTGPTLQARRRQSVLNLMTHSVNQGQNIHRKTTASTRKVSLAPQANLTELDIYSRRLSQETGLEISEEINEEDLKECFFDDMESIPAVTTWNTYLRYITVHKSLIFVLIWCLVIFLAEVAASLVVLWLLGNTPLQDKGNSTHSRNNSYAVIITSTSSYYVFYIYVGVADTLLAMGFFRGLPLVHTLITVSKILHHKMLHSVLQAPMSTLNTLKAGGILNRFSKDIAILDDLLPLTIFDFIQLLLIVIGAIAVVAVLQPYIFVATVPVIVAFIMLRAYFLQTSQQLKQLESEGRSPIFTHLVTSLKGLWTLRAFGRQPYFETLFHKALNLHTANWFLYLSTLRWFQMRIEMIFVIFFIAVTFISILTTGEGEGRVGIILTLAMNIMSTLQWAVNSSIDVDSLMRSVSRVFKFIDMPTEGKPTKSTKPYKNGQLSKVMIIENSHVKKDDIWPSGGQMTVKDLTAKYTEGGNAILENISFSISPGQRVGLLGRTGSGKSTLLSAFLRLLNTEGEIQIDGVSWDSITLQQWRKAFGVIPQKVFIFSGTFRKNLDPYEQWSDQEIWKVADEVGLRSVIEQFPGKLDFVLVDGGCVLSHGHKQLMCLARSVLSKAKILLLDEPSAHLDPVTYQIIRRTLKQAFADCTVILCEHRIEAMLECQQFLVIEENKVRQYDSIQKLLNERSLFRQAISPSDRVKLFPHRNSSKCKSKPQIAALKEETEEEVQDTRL
Protocol: as §1, §2, §3

CFTR channel = CFTR channel (Homo sapiens, UniProt P13569); test: whole-cell patch-clamp in CHO-BQ1 cells, reversibility after washing; parameters: expressed in transfected cells; host or cells: CHO-BQ1 cells; details: octan-1-ol 1 mM, washing 15 min with physiological saline
Sequence of CFTR channel (P13569 whole entry): as the sequence (P13569 whole entry) above
Protocol: More specifically, culture dishes (cell support) are placed in an experimentation cell (volume 1 ml) on the platform of an inverted microscope (Nikon) equipped with phase-contrast lighting. The whole-cell configuration is used for recording the cell currents (Hamill et al., 1981). The experiments are carried out at ambient temperature (20-22° C.). The currents are amplified with an Axopatch 200B amplifier (Axon Instrument Ltd) having a 2-5 kHz low-pass filter (Bessel 6-pole filter), and recorded on the hard disk of a PC after digitization at 10-25 kHz. The pipettes are produced from glass tubes 1 mm in diameter (Clark Electromedical Instrument) in four steps with a horizontal drawing device (Bruwn Flaming 97, CA).
The pipettes, filled with an intracellular solution containing, in mM: 60 KCl; 80 NMDG ([…]); 10 HEPES; 5 EGTA; 1 CaCl2; 4 MgATP; 0.2 Na3GTP; pH 7.4, titrated with KOH), having a resistance of 5 MΩ. The potentials are expressed as the difference between the potential of the patch electrode and that of the bath. In the whole-cell configuration, they represent the membrane potential of the cell. […] The current-voltage relationships in the stationary state are determined using slow voltage ramps (20 mV/.s) under an imposed voltage condition. […]

CCCCCCCCO [octan-1-ol]
EC50 ([1]; in the absence of FSK): 1140 µM
EC50 ([1]; in the presence of FSK (1 μM)): 512 µM
activation of iodide efflux in Calu-3 cells, in words ([1]; octan-1-ol 0.1 to 10 mM, FSK 1 μM): activates the exit of iodide
effect on the basal level when the mutated channel is not present at the plasma membrane [2]: has no effect on the basal level
activation of ΔF508 mutated CFTR channel, in words ([2]; 1 mM): specifically activates the ΔF508 mutated CFTR channel
activation of mutated CFTR-ΔF508 channel as share of maximum activity (10 μM FSK+30 μM genistein = 100%) ([2]; octan-1-ol 1 mM): approximately 50%
reversibility of the activating effect on CFTR (CFTR channel): reversible

From patent US20070191493A1, “Use of n-alkanols as activators of the cftr channel” (priority 2003, published 2007)
